Laboratory results taken from US6291470A, “Indole derivatives process for producing the same and medicinal uses of the same” (Toray Industries, Inc., priority 1992, dated 2001).

Columns and labels:
δ-opioid receptor = molecular target: T1, δ-opioid receptor (Mus musculus, UniProt P32300); assay: δ-opioid antagonist activity against DPDPE in mouse vas deferens (MVD); details: for Ratio of IC50 Values: DPDPE IC50 with/without 100 nM test compound; for Ratio of IC50 Values / Kb: 20 min; for Kb: against DPDPE, test compound 100 nM, read-out: Ke
T1 construct: from tissue; host or cells: vas deferens of male ddy mice
T1 sequence (P32300 whole entry): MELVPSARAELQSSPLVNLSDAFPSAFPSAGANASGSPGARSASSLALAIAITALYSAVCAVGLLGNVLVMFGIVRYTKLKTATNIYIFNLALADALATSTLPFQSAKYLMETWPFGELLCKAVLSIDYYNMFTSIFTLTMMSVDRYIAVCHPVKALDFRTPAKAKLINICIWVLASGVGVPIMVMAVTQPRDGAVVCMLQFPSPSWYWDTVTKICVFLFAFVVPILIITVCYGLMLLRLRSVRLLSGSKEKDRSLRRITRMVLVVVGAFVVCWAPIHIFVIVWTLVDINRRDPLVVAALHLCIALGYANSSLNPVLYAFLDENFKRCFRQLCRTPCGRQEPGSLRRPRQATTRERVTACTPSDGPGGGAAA
Description: Using mouse vas deferens (MVD), the antagonist activity against DPDPE which is a δ-opioid agonist was checked.
In this experiment, ddy male mice were used. In a Magnus' tube which is filled with Krebes-Henseleit solution (NaCl […]; KCl 4.7 mM; CaCl2 2.5 mM; KH2 PO4 1.1 mM; NaHCO3 25 mM; glucose 11 mM) kept at 37° C., and into which an atmosphere consisting of 5% carbon dioxide and 95% oxygen was flown, vas deferens taken from the animals was suspended. Electric stimulation was applied through ring-shaped platinum electrodes mounted on the upper and lower portions of the tube at a frequency of 0.1 Hz and 5.0 mS duration. The contraction of the tissue was recorded on polygraph using isometric transducer.
Then 100 nM of the test compound was added. Twenty minutes later, DPDPE was begun to be added cumulatively. The ratio of IC50 values in the presence and absence of the test compound, Ke value (the molar concentration of the test compound necessary for translating the dose-effect curve to the curve of twice dose) and pA2 value were determined. The pA2 value was determined by the method of Shild et al (Shild, H. O., Br. J. Pharmac. Chamotehr., 4, 277 (1949)). That is, the logarithm of the test compound (log[test compound]) was plotted along the abscissa and the logarithm of the value obtained by subtracting 1 from the ratio of IC50 values was plotted in the presence and absence of the test compound [log(dose ratio-1)] along the ordinate. The pA2 value was determined from the value on the abscissa when the value on the ordinate of the obtained line is 0.

[1] = tested on: delayed type hypersensitivity; assay: Mouse Delayed Type Hypersensitivity Reaction Suppression Test-1 (SRBC); type: in vivo; details: SRBC sensitization; subcutaneous, everyday from 3 days before sensitization, totally 8 days; BALB/c
Description: BALB/c mice (male, 7 weeks old) were used. The mice were classified into groups depending on the body weight, each group consisting of 7-8 mice. Each of the mice was sensitized by subcutaneously administering […] of SRBC (8×10^8 in saline) on the heel of the left hing leg. On day 4 from the sensitization, 25 μl of SRBC (8×10^9 in saline) was subcutaneously administered on the right footpad so as to induce delayed type hypersensitivity. The difference in the thicknesses of the right footpad before the induction of reaction and 24 hours after the induction of the reaction was employed as an index of the degree of the reaction.
The test compound was dissolved in 10% DMSO-water and was subcutaneously administered everyday from 3 days before the sensitization to the day of induction of the reaction, totally 8 days. In the control group, 10% DMSO-water alone was administered in the same manner. The volume of administration was 5 ml/kg in both study groups and in the control group.
The % suppression of the delayed type hypersensitivity reaction was calculated according to the following equation: [formula]
wherein A means the difference in the thickness of the right hind leg before and after the reaction in control group, and B means the difference in the thickness of the right hind leg before and after the reaction in the group to which the test compound was administered.

[2] = tested on: delayed type hypersensitivity; assay: Mouse Delayed Type Hypersensitivity Reaction Suppression Test-2 (donor spleen cells, subcutaneous administration); type: in vivo; details: C57BL/6 spleen cells; subcutaneous everyday from day of sensitization, totally 8 days; BALB/c
Text: (§1) BALB/c mice (male, 7 weeks old) were used, and each group consisted of 4-5 mice. Spleen cells (1×10^7 ) obtained from a donor mouse (C57BL/6) was subcutaneously administered to sensitize the mice. On Day 7 from the sensitization, the spleen cells (5×10^6) of the donor were subcutaneously administered on the right hing leg and spleen cells (5×10^6) obtained from a mouse of the same line as the recipient mice were subcutaneously administered on the left footpad. Twenty four hours later, the thicknesses of the right and left footpads were measured with a dial thickness gage, and the difference in thicknesses of the right and left footpads before the induction of the reaction and 24 hours after the induction of the reaction was employed as the index of the degree of the reaction.
The test compound was dissolved in 10% DMSO-water and was subcutaneously administered everyday from the day of sensitization to the day of induction of the reaction, totally 8 days. In the control group, 10% DMSO-water alone was administered in the same manner. The volume of administration was 10 ml/kg in both study groups and in the control group. Delayed Type Hypersensitivity Reaction=(thickness of right foodpad after induction-thickness of right footpad before induction)-(thickness of […] before induction) [formula]
wherein C means delayed type hypersensitivity reaction of the group to which the test compound was administered and D means the delayed type hypersensitivity reaction of the group to which vehicle was administered.

[3] = tested on: delayed type hypersensitivity; assay: Mouse Delayed Type Hypersensitivity Reaction Suppression Test-3 (administration into cerebral ventricles); type: in vivo
Text: as §1, with “(1×10^7)” for “(1×10^7 )”, “footpad” for “hing leg”, “strain” for “line”
The test compound was dissolved in water and 5×10^-8 mol/mouse was administered into cerebral ventricles. In the control group, water alone was administered similarly. The dose was 5 μl/mouse in both the study groups and the control group.

[4] = tested on: delayed type hypersensitivity; assay: Delayed type hypersensitivity suppression test using mice from which adrenal glands have been removed; type: in vivo, mouse; details: subcutaneous, totally 8 days
Text: The mechanism of immunosuppression of the compound of the present invention was examined using delayed type hypersensitivity suppression test using mice from which adrenal glands have been removed.
as §1, with “(1×10^7)” for “(1×10^7 )”, “footpad” for “hing leg”, “strain” for “line”
The adrenectomy was performed by cutting the back of each recipient mouse under anesthesia with ether before the sensitization and removing the adrenal gland. Sham operation was performed by cutting the back of each recipient mouse but not removing the adrenal gland.
The test compound was dissolved in 10% DMSO-water and was subcutaneously administered everyday from the day of sensitization to the day of induction of the reaction, totally 8 days. In the control group, 10% DMSO-water alone was administered in the same manner. The volume of administration was 10 ml/kg in both study groups and in the control groups.

contact dermatitis = assay: Mouse Contact Dermatitis Suppression Test (DNFB); type: in vivo; details: into cerebral ventricle 30 minutes before induction, BALB/c
Description: BALB/c mice (male, 13-15 weeks old) were used, and each group consisted of 4 mice. In mixed liquid of acetone: olive oil=4:[…] (DNFB) was dissolved. On Day 0 and Day 1, 0.1% DNFB (50μ) was sensitized to the clipped skin of the abdominal wall, so as to sensitize the mouse. On day 5, 0.15% DNFB (25 μl/ear) was challenged on closal side of each ear love of each mouse, so as to induce the reaction. The compound was administered into cerebral ventricle 30 minutes before the induction.
The contact dermatitis was detected in terms of the increase in the thicknesses of the ears. The thicknesses of the ears were measured before and 24 hours after the challenge by using a dial thickness gage. One ear was taken as n=1, and the increase in the thickness of the ear was used as an index for detecting the contact dermatitis. Contact Dermatitis=(thickness of the ear after challenge)-(thickness of the ear before challenge) [formula]
wherein E means the contact dermatitis of the group to which the compound was administered, and F means the contact dermatitis of the group to which the vehicle was administered.

[5] = tested on: Cerebral cortex nerve cells; assay: Brain cell-protecting action, MTT method; type: cell-based, rat; details: study group / control group, 570 nm, 10 μM, 3 days culture
Description: The brain cell-protecting action was examined by MTT [3-(4,5-dimethylthiazol-2-yl)-2,5-diphenyltetrazolium bromide] method. MTT yields a dark blue formazan compound by mitochondria in living cells. This compound was dissolved in isopropanol and absorbance at 570 nm was measured, thereby measuring the number of living cells.
Cerebral cortex nerve cells of fetal rats of 17 days old were placed in wells of a 96-well plate at a population density of 1×10^5 cells/cm^2. Then 10 μM of a test compound was added and the cells were cultured in 200 μl of mixed medium of D-MEM/F.12 (1:1) for 3 days (37° C., 5%CO2). In a control group, the medium alone was added Then […] of MTT solution in PBS (6mg/ml) was added and the mixture was allowed to react for 3 hours (37° C., 5% CO2). After removing the culture medium, 100 μl of isopropanol was added and the absorbance was measured.
The ratio of the absorbances of the study group and the control group was employed as an index of brain cell-protecting action.

brain cells = details: Kokai No. 3-218313; cited from earlier work

O=[N+]([O-])c1cccc2[nH]c3c(c12)C[C@@]1(O)[C@H]2Cc4ccc(O)c5c4[C@@]1(CCN2CC1CC1)[C@H]3O5 [Compound 78, 17-cyclopropylmethyl-6,7-didehydro-4,5α-epoxy-3,14β-dihydroxy-4'-nitro-6,7-2',3'-indolomorphinan]
Ratio of IC50 Values (δ-opioid receptor): 148
Kb (δ-opioid receptor): 7.25 nM
% Suppression [1]: 36%

Oc1ccc2c3c1O[C@H]1c4[nH]c5c6c(ccc5c4C[C@@]4(O)[C@@H](C2)N(CC2CC2)CC[C@]314)CCCC6 [Compound 2, 17-cyclopropylmethyl-3,14β-dihydroxy-4,5α-epoxy-6,7-didehydromorphinano[6,7-b]cyclohexeno[g]indole]
% Suppression [2]: 60%
Ratio of IC50 Values (δ-opioid receptor): 22.1
Kb (δ-opioid receptor): 4.74 nM
% Suppression ([3]; 5×10^-8 mol/mouse into cerebral ventricles, BALB/c): 83%
suppressive effect relative to NTI (in words) ([3]; into cerebral ventricles, vs NTI): far stronger than NTI
% Suppression ([4]; Adrenectomy): 60%
% Suppression ([4]; Sham Operation): 60%
suppression of contact dermatitis (contact dermatitis): 44%

CSc1cccc2c3c([nH]c12)[C@@H]1Oc2c(O)ccc4c2[C@@]12CCN(CC1CC1)[C@H](C4)[C@]2(O)C3 [Compound 121, 17-cyclopropylmethyl-6,7-didehydro-4,5α-epoxy-3,14β-dihydroxy-7'-methylthio-6,7-2',3'-indolomorphinan]
Ratio of IC50 Values (δ-opioid receptor): 33.6
Kb (δ-opioid receptor): 3.07 nM
% Suppression [1]: 20%

Oc1ccc2c3c1O[C@H]1c4[nH]c5c(-c6ccccc6)cccc5c4C[C@@]4(O)[C@@H](C2)N(CC2CC2)CC[C@]314 [Compound 120, 17-cyclopropylmethyl-6,7-didehydro-4,5α-epoxy-3,14β-dihydroxy-7'-phenyl-6,7-2',3'-indolomorphinan]
% Suppression [2]: 46%
Ratio of IC50 Values (δ-opioid receptor): 17.0
Kb (δ-opioid receptor): 6.25 nM

Oc1ccc2c3c1O[C@H]1c4[nH]c5c(c4C[C@@]4(O)[C@@H](C2)N(CC2CC2)CC[C@]314)C[C@@]1(O)[C@H]2Cc3ccc(O)c4c3[C@@]1(CCN2CC1CC1)[C@H]5O4 [nor-BNI, reference compound]
Ratio of Absorbances [5]: 7.60
brain cell-protecting action (in words) (brain cells): has brain cell-protecting action

CCOC(=O)c1cccc2c3c([nH]c12)[C@@H]1Oc2c(O)ccc4c2[C@@]12CCN(CC1CC1)[C@H](C4)[C@]2(O)C3 [Compound 119, 17-cyclopropylmethyl-6,7-didehydro-4,5α-epoxy-3,14β-dihydroxy-7'-ethoxycarbonyl-6,7-2',3'indolomorphinan]
% Suppression [2]: 31%
δ-antagonist activity relative to NTI (times that of NTI) (δ-opioid receptor): 1.3-1.6 times
Ratio of IC50 Values (δ-opioid receptor): 635
Kb (δ-opioid receptor): 0.16 nM
% Suppression [1]: 12%

CSc1ccc2c3c([nH]c2c1)[C@@H]1Oc2c(O)ccc4c2[C@@]12CCN(CC1CC1)[C@H](C4)[C@]2(O)C3 [Compound 43, 17-cyclopropylmethyl-6,7-didehydro-4,5α-epoxy-3,14β-dihydroxy-6'-methylthio-6,7-2',3'-indolomorphinan]
% Suppression [2]: 27%
Ratio of IC50 Values (δ-opioid receptor): 168
Kb (δ-opioid receptor): 0.6 nM
% Suppression [1]: 26%

N#Cc1ccc2c3c([nH]c2c1)[C@@H]1Oc2c(O)ccc4c2[C@@]12CCN(CC1CC1)[C@H](C4)[C@]2(O)C3 [Compound 53, 17-cyclopropylmethyl-6,7-didehydro-4,5α-epoxy-3,14β-dihydroxy-6'-cyano-6,7-2',3'-indolomorphinan]
Ratio of IC50 Values (δ-opioid receptor): 62.3
Kb (δ-opioid receptor): 1.63 nM
% Suppression [1]: 18%

O=[N+]([O-])c1cccc2c3c([nH]c12)[C@@H]1Oc2c(O)ccc4c2[C@@]12CCN(CC1CC1)[C@H](C4)[C@]2(O)C3 [Compound 136, 17-cyclopropylmethyl-6,7-didehydro-4,5α-epoxy-3,14β-dihydroxy-7'-nitro-6,7-2',3'-indolomorphinan]
Ratio of IC50 Values (δ-opioid receptor): 192
Kb (δ-opioid receptor): 0.52 nM
% Suppression [1]: 18%
